{"source": "patent US20220288004A1", "about": "“TREATMENT AND PREVENTION OF AGING RELATED-DISEASE AND/OR AGING BY THE INHIBITION OF SPHINGOLIPIDS” (ECOLE POLYTECHNIQUE FEDERALE DE LAUSANNE (EPFL), priority 2019, published 2022)", "key": {"[1]": {"tested_on": "aged C57Bl/6JRj mice", "test": "Muscle function tests (treadmill, aerobic capacity, grip strength, rotarod, crossbar) in aged mice", "type": "in vivo, mouse", "conditions": "myriocin 5 months vs DMSO", "method": "To examine whether a causal relationship could underlie the correlation between SphPC1 and muscle mass and function, it was tested whether inhibition of sphingolipid de novo biosynthesis pathway could protect against age-related muscle dysfunction. Aged (18-month-old) C57Bl/6JRj mice were treated for 5 months on chow diet with myriocin, a specific inhibitor of SPT, the first and rate-limiting enzyme of the sphingolipid de novo synthesis pathway, and whose expression in skeletal muscle was negatively correlated with muscular fitness in BXDs.\nAnimals. Young (2-month-old) and aged (18-month-old) C57Bl/6JRj mice were purchased from Janvier Labs. EchoMRI measuring the fat and lean body mass, were measured before and after the treatment. The dose of myriocin was 0.4 mg/kg/3 times a week. Myriocin (Enzo Life Sciences, Farmingdale, N.Y.) was first dissolved in DMSO which was then mixed with PBS so that each mouse received 1.5 μL DMSO per injection. Animals were fed on a standard chow diet. All animals were housed in micro-isolator cages in a room illuminated from 7:00 AM to 7:00 PM with ad libitum access to diet and water. All the animal experiments are authorized by animal license 2890.1 and 3341 in Canton of Vaud, Switzerland.\n(§1) Endurance running test. The exercise regimen on a treadmill commenced at a speed of 9 cm/s. As the mice were aged, an inclination of 0 degrees was used. Mice were considered to be exhausted, and removed from the treadmill if they received 7 or more shocks (0.2 mA) per minute for two consecutive minutes. The distance traveled and time before exhaustion were registered as maximal running distance and time.\n(§2) Grip strength. Muscle strength was assessed by grip strength test. The grip strength of each mouse was measured on a pulldown grid assembly connected to a grip strength meter (Columbus Instruments). The mouse was drawn along a straight line parallel to the grip, providing peak force. The experiment was repeated three times, and the highest value was included in the analysis.\n(§3) Rotarod test. The rotarod test measures muscle strength, coordination, and endurance. Mice were left undisturbed in the room for 30 min. The speed of the rotating cylinder (rotarod) increased from 0 to 40 rpm in 5 min. Each mouse had 3 trials per day for 3 consecutive days. The latency and speed the mouse reached it passive rotation or fall from the rotor was recorded, and the latency and speed of the best trial of the second day is presented.\nCrossbar test. Crossbar test assesses active balance through the ability to balance while walking along an elevated beam to reach a dark end side where they are able hide. Since all the mice were easily able to cross a squared (3 cm) beam, and a circular beam of diameter 1.5 cm was too difficult to them, the latency was recorded to cross a circular beam of 3 cm. The mice were trained for one day before the actual trial was recorded, and the average of the latency of three trials per mouse is presented."}, "[2]": {"tested_on": "human primary myoblasts", "test": "Human primary myoblast differentiation", "type": "cell-based", "conditions": "30 μM myriocin vs DMSO", "method": "Cell culture and cell transfection. The C2C12 mouse myoblast cell line was obtained from the American Type Culture Collection (CRL-1772™). C2C12 cells or clones were cultured in growth medium consisting of Dulbecco's modified Eagle's medium (Gibco, 41966-029), 20% Fetal Bovine Serum (Gibco, 10270-106) and 100 U/mL penicillin and […] streptomycin (Gibco, 15140-122). To induce differentiation, FBS was substituted with 2% horse serum (Gibco, 16050-122). Trypsin-EDTA 0.05% (GIBCO, 25300-062) was used to detach cells. Human skeletal muscle cells were obtained from Lonza (SkMC, #CC-2561) and cultured in growth medium consisting of DMEM/F12 (Gibco, 10565018), 20% Fetal Bovine Serum (Gibco, 10270-106) and 100 U/mL penicillin and […] streptomycin (Gibco, 15140-122). To induce differentiation, FBS was reduced to 2% and kept in culture. All cells were maintained at 37° C. with 5% CO2. Cell transfections were done using TransiT (Mirus) according to the manufacturer's protocol with a 3:1 ratio of transfection agent to DNA. […]\nImmunocytochemistry. […] The immunofluorescence images were acquired using either fluorescence or confocal microscopy. The myofusion index was calculated as the ratio of nuclei within myotubes to total nuclei. The myotube diameter was measured for 8 myotubes per image using ImageJ. Myotube area was calculated as the total area covered by myotubes."}, "[3]": {"tested_on": "mdx mice", "test": "Myriocin treatment of mdx mice (Duchenne muscular dystrophy model)", "type": "in vivo, mouse", "method": "Next the activity of sphingolipid synthesis was inhibited in a mouse model of Duchenne muscular dystrophy. Mdx, a dystrophin deficient mouse model, was treated with myriocin (0.4 mg/kg/3 times a week intraperitoneally) for 2 months. […] Furthermore, after downhill running, plasma levels of creatine kinase (CK) were lower in myriocin treated mice compared to controls (FIG. 8f).\nas §1, §2, §3"}, "[4]": {"tested_on": "skeletal muscle of aged mice", "test": "Proteostasis (A11 staining) in skeletal muscle of aged mice", "type": "in vivo, mouse", "method": "FIG. 17. […] Values are expressed as mean±s.e.m. *P≤0.05. Differences between two groups were assessed using Student's two-tailed t-tests (error bars: 95% confidence intervals)."}, "[5]": {"conditions": "myriocin 0.4 mg/kg 3 times a week intraperitoneally, 2 months"}}, "note": "“Also recorded” adds a separate entry of the source."}
{"smiles": "CCCCCCC(=O)CCCCCCC=CCC(O)C(O)C(N)(CO)C(=O)O", "note": "(centres unmarked) [myriocin, 2-Amino-3,4-dihydroxy-2-(hydroxymethyl)-14-oxoicos-6-enoic acid]", "values": [{"measurement": "aerobic capacity (maximal oxygen consumption)", "setting": "[1]", "value": "improved; also recorded: increased"}, {"measurement": "crossing of a beam", "setting": "[1]", "value": "faster crossing"}, {"measurement": "grip strength", "setting": "[1]", "value": "improved; also recorded: increased"}, {"measurement": "performance in the rotarod test", "setting": "[1]", "value": "improved performance"}, {"measurement": "running distance and time on a treadmill", "setting": "[1]", "value": "increased; also recorded: improved performance"}, {"measurement": "speed reached before falling off the rotarod", "setting": "[1]", "value": "higher speed"}, {"measurement": "human myoblast differentiation", "setting": "[2]", "value": "accelerated"}, {"measurement": "myotube area", "setting": "[2]", "value": "larger"}, {"measurement": "plasma levels of creatine kinase (CK)", "setting": "[3]; after downhill running, myriocin 2 months vs controls", "value": "lower"}, {"measurement": "grip strength", "setting": "[3]; [5]", "value": "improved"}, {"measurement": "performance in rotarod test", "setting": "[3]; [5]", "value": "improved performance"}, {"measurement": "performance in uphill running test", "setting": "[3]; [5]", "value": "improved performance"}, {"measurement": "proteostasis in skeletal muscle", "setting": "[4]; aged mice treated with myriocin", "value": "improves proteostasis; also recorded: promoted proteostasis"}, {"measurement": "amyloid beta aggregates (A11 staining)", "setting": "[4]; skeletal muscle of aged mice treated with myriocin", "value": "cleared amyloid beta aggregates"}]}
